This note sets out measurements from ChEMBL document CHEMBL4152353, “Synthesis of DNA interactive C3-trans-cinnamide linked β-carboline conjugates as potential cytotoxic and DNA topoisomerase I inhibitors” (Bioorg Med Chem, 2018).

For one assay, the system named is A549. Nature of the assay: Cytotoxicity against human A549 cells after 48 hrs by MTT assay. The note with it: A549, 48 h. In kind it is functional, cell-based. For orientation: Tetrazolium assays rely on reduction of a dye to a coloured formazan, in cell work by metabolically active cells.
For a further assay, the system named is MCF7. Description: Cytotoxicity against human MCF7 cells after 48 hrs by MTT assay. In kind it is functional, cell-based. The note with it: MCF7, 48 h.
The subject of a further assay is B16. Nature of the assay: Cytotoxicity against mouse B16 cells after 48 hrs by MTT assay. Type of assay: functional, cell-based. Conditions: B16, 48 h.
The next assay deals with HeLa. Nature of the assay: Cytotoxicity against human HeLa cells after 48 hrs by MTT assay. Type of assay: functional, cell-based.
Another assay deals with NIH3T3. Nature of the assay: Cytotoxicity against mouse NIH/3T3 cells after 48 hrs by MTT assay. The note with it: NIH3T3, 48 h. In kind it is cell-based.

The IC50 is the point on the concentration scale where inhibition reaches its midpoint. Turning to `COc1ccc(OC)c(/C=C/C(=O)NCc2cc3c([nH]c4ccccc43)c(-c3cc(OC)c(OC)c(OC)c3)n2)c1`, the IC50 with A549 is 18.8 nM; with MCF7 it was 17.2 nM; in the assay on B16 it was 19.2 nM; in the assay with HeLa it was 25.1 nM; with NIH3T3, 39 nM.
Turning to `COc1ccc(-c2nc(CNC(=O)CCCl)cc3c2[nH]c2ccccc23)cc1`, the IC50 in the assay with A549, with MCF7, in the assay on HeLa and in the assay on NIH3T3 was above 50000 nM throughout.
Consider `C/C=C/C(=O)NCc1cc2c([nH]c3ccccc32)c(-c2ccc(OC)cc2)n1`, for which the half-inhibitory concentration (IC50) with A549 came to 3360 nM; in the assay with MCF7, 10800 nM; in the assay on HeLa it was 5410 nM; in the assay with NIH3T3, 2670 nM.
The corresponding values for `C=CCNC(=O)/C=C/c1cccc(O)c1` are above 50000 nM, above 50000 nM, above 50000 nM and above 50000 nM.
Consider `COc1ccc(-c2nc(CNC(=O)/C=C/c3cc(OC)ccc3OC)cc3c2[nH]c2ccccc23)cc1`, for which the half-inhibitory concentration (IC50) with A549 turned out to be 18.9 nM; with MCF7, 16.5 nM; with B16 it was 22.1 nM; in the assay with HeLa, 25.4 nM; with NIH3T3, 34.4 nM.
`COc1ccc(-c2nc(CNC(=O)/C=C/c3cc(F)cc(F)c3)cc3c2[nH]c2ccccc23)cc1`: the IC50 with A549 was 20 nM; in the assay with MCF7 it was 17.2 nM; in the assay with B16 it was 23.9 nM; in the assay with HeLa, 24.6 nM; in the assay with NIH3T3 it was 37.5 nM.
Regarding `O=C(/C=C/c1ccc(Cl)cc1)NCc1cc2c([nH]c3ccccc32)c(-c2cccc(F)c2)n1`, the 50% inhibitory concentration (IC50) in the assay with A549 was determined as 19.6 nM; in the assay on MCF7, 18.3 nM; in the assay on B16 it was 18.2 nM; with HeLa it was 19.2 nM; in the assay with NIH3T3, 43.6 nM.
`COc1cc(/C=C/C(=O)NCc2cc3c([nH]c4ccccc43)c(-c3cc(OC)c(OC)c(OC)c3)n2)ccc1O`: the IC50 in the assay with A549 worked out at 18.3 nM; with MCF7, 17.6 nM; with B16, 19 nM; with HeLa, 26 nM; in the assay on NIH3T3 it was 43.1 nM.
Take `COc1cc(-c2nc(CNC(=O)/C=C/c3cc(F)cc(F)c3)cc3c2[nH]c2ccccc23)cc(OC)c1OC`: the IC50 in the assay on A549 stood at 21.6 nM; with MCF7 it was 19.6 nM; with B16, 24.1 nM; in the assay with HeLa, 23.8 nM; with NIH3T3, 36.3 nM.
For `COc1cc(-c2nc(CNC(=O)/C=C/c3cccc(O)c3)cc3c2[nH]c2ccccc23)cc(OC)c1OC`, the IC50 in the assay on A549 amounted to 19.5 nM; in the assay on MCF7 it was 16.8 nM; in the assay on B16, 21.8 nM; in the assay on HeLa, 23.6 nM; in the assay with NIH3T3 it was 38.2 nM.
Turning to `COc1ccc(-c2nc(CNC(=O)/C=C/c3cc(OC)c(OC)c(OC)c3)cc3c2[nH]c2ccccc23)cc1`, the concentration for half-maximal inhibition (IC50) came out at 19.7 nM with A549; 13.9 nM in the assay with MCF7; 17.4 nM in the assay with B16; 22.9 nM in the assay on HeLa; 39.3 nM with NIH3T3.
The like results for `O=C(/C=C/c1ccc(Cl)c(Cl)c1)NCc1cc2c([nH]c3ccccc32)c(-c2cccc(F)c2)n1` were, in that order, 18 nM, 17 nM, 18.9 nM, 24.9 nM and 39 nM.
Regarding `COc1cc(/C=C/C(=O)NCc2cc3c([nH]c4ccccc43)c(-c3cc(OC)c(OC)c(OC)c3)n2)cc(OC)c1OC`, the IC50 in the assay with A549 was found to be 21.3 nM; in the assay on MCF7, 16.5 nM; in the assay on B16 it was 17.2 nM; with HeLa, 23.5 nM; with NIH3T3 it was 38.9 nM.
The like results for `COc1ccc(-c2nc(CNC(=O)/C=C/c3ccc(O)c(OC)c3)cc3c2[nH]c2ccccc23)cc1` were, in that order, 21.2 nM, 17.2 nM, 19.8 nM, 24.9 nM and 39.9 nM.
Turning to `COc1ccc(-c2nc(CNC(=O)/C=C/c3ccc(F)cc3)cc3c2[nH]c2ccccc23)cc1`, the IC50 was 20.2 nM in the assay with A549; 18.2 nM in the assay on MCF7; 21.9 nM with B16; 22.8 nM with HeLa; 36.9 nM with NIH3T3.
Regarding `COc1cc(/C=C/C(=O)NCc2cc3c([nH]c4ccccc43)c(-c3cccc(F)c3)n2)cc(OC)c1OC`, the IC50 in the assay with A549 was 17.9 nM; in the assay on MCF7, 16.2 nM; in the assay on B16, 19.8 nM; in the assay on HeLa, 23 nM; with NIH3T3, 36 nM.
The like results for `COc1ccc(OC)c(/C=C/C(=O)NCc2cc3c([nH]c4ccccc43)c(-c3cccc(F)c3)n2)c1` were, in that order, 22.2 nM, 17.5 nM, 19.9 nM, 21.9 nM and 39.6 nM.
With `O=C(/C=C/c1cc(F)cc(F)c1)NCc1cc2c([nH]c3ccccc32)c(-c2cccc(F)c2)n1`, the IC50 in the assay with A549 was 21 nM; in the assay on MCF7, 16.5 nM; with B16 it was 18.2 nM; in the assay on HeLa it was 23.6 nM; with NIH3T3, 36 nM.
In the case of `COc1cccc2c1C(=O)c1c(O)c3c(c(O)c1C2=O)C[C@@](O)(C(=O)CO)C[C@@H]3O[C@H]1C[C@H](N)[C@H](O)[C@H](C)O1` [DOXORUBICIN], the half-maximal inhibitory concentration (IC50) in the assay on MCF7 was determined as 580 nM; with B16, 670 nM; in the assay with HeLa, 780 nM; with NIH3T3, 1720 nM.
As for `COc1cc(-c2nc(CNC(=O)/C=C/c3ccc(Cl)cc3)cc3c2[nH]c2ccccc23)cc(OC)c1OC`, the IC50 is 18.9 nM with A549; 17.5 nM in the assay on MCF7; 18.7 nM in the assay on B16; 26.8 nM with HeLa; 35.6 nM in the assay on NIH3T3.
The corresponding values for `O=C(/C=C/c1cccc(O)c1)NCc1cc2c([nH]c3ccccc32)c(-c2cccc(F)c2)n1` are 23.4 nM, 19.2 nM, 24.9 nM, 27 nM and 35.7 nM.
Regarding `COc1cc(-c2nc(CNC(=O)/C=C/c3ccc(F)cc3)cc3c2[nH]c2ccccc23)cc(OC)c1OC`, the IC50 in the assay on A549 is 18.7 nM; in the assay with MCF7 it was 16.4 nM; with B16 it was 17.2 nM; in the assay with HeLa, 20 nM; with NIH3T3 it was 43 nM.
For `COc1cc(/C=C/C(=O)NCc2cc3c([nH]c4ccccc43)c(-c3cccc(F)c3)n2)ccc1O`, the IC50 with A549 was 22.4 nM; in the assay with MCF7 it was 17.9 nM; with B16 it was 19.4 nM; in the assay with HeLa, 23.9 nM; with NIH3T3, 36.9 nM.
For the molecule `COc1cc(-c2nc(CNC(=O)/C=C/c3ccc(Cl)c(Cl)c3)cc3c2[nH]c2ccccc23)cc(OC)c1OC`, the concentration for half-maximal inhibition (IC50) with A549 was 20.4 nM; with MCF7 it was 17.5 nM; in the assay with B16, 16.9 nM; with HeLa, 25.9 nM; in the assay on NIH3T3, 39.2 nM.
As to `COc1ccc(-c2nc(CNC(=O)/C=C/c3ccc(Cl)c(Cl)c3)cc3c2[nH]c2ccccc23)cc1`, the concentration for half-maximal inhibition (IC50) in the assay with A549 turned out to be 18.4 nM; with MCF7 it was 16.4 nM; with B16, 23 nM; in the assay with HeLa, 21.6 nM; in the assay with NIH3T3 it was 37.5 nM.
As for `O=C(/C=C/c1ccc(F)cc1)NCc1cc2c([nH]c3ccccc32)c(-c2cccc(F)c2)n1`, the IC50 with A549 was 16.3 nM; in the assay with MCF7 it was 16.5 nM; with B16, 16.8 nM; in the assay with HeLa, 24.3 nM; in the assay with NIH3T3, 30.8 nM.
